Experimental data as given in patent EP1075467B1, “PYRAZOLE DERIVATIVES AS P-38 MAP KINASE INHIBITORS” (F. Hoffmann-La Roche AG, priority 1998, dated 1999).
Counter-ions that a name gives are not always drawn. Like-named read-outs stand apart in the source and are kept apart here.

Assays:
[1] = system: TNF-α Production In Rats; test: Inhibition of LPS-induced TNF-α production in rats, in vivo assay; design: species or system Female Sprague-Dawley rats; conditions: dosed orally at 30 mg, LPS 50 µg/kg intraperitoneally after 30 min, serum TNF-α 1.5 h later by ELISA
Experimental: Female Sprague-Dawley rats weighing 110-140 grams (Charles River, Hollister, CA) were acclimated for one week. Groups containing 8 […] each were dosed orally either with the test compounds dissolved in an aqueous vehicle containing 0.9% sodium chloride, 0.5% sodium carboxymethyl-cellulose, 0.4% polysorbate 80, 0.9% benzyl alcohol (CMC vehicle) or only vehicle (control group). After 30 min., the […] were injected intraperitoneally with 50 µg/kg of LPS (Sigma, St. Louis, MO).

[2] = system: TNF-α Production In THP1 Cells; test: Inhibition of LPS-induced TNF-α production in THP1 cells, in vitro assay; type: cell-based, human; conditions: THP-1 cells, LPS 0.5 µg/ml, 2 h, TNF-α in supernatant by ELISA, read-out: IC50 (concentration corresponding to half-maximal reduction in 450 nm absorbance), TNF-α release
Experimental: The ability of the compounds of this invention to inhibit the TNF-α release was determined using a minor modification of the methods described in Blifeld, C. et al. Transplantation, Vol. 51(2), 498-503, (1991). THP-1 cells were suspended in culture medium [RPMI (Gibco-BRL, Gailthersburg, MD) containing 15% fetal bovine serum, 0.02 mM 2-mercaptoethanol], at a concentration of 2.5 x 10^6 cells/ml and then plated in 96 well plate (0.2 ml aliquots in each well). Test compounds were dissolved in DMSO and then diluted with the culture medium such that the final DMSO concentration was 5%. 20 μl aliquots of test solution or only medium with DMSO (control) were added to each well. The cells were incubated for 30 min., at 37 °C. LPS (Sigma, St. Louis, MO) was added to the wells at a final concentration of 0.5 μg/ml, and cells were incubated for an additional 2 h. At the end of the incubation period, culture supernatants were collected and the amount of TNF-α present was determined using an ELISA assay as described below. The amount of human TNF-α present was determined by a specific trapping ELISA assay using two anti-TNF-α antibodies (2TNF-H22 and 2TNF-[…]) described in Reimund, J. M., et al. GUT. Vol. 39(5), 684-689 (1996). Polystyrene 96-well plates were coated with 50 μl per well of antibody 2TNF-H22 in PBS (10 μg/ml) and incubated in a humidified chamber at 4 °C overnight. The plates were washed with PBS and then blocked with 5% nonfat-dry milk in PBS for 1 hour at room temperature and washed with 0.1% BSA (bovine serum albumin) in PBS. TNF standards were prepared from a stock solution of human recombinant TNF-α (R&D Systems, Minneapolis, MN). The concentration of the standards in the assay began at 10 ng/ml followed by 6 half log serial dilution's. […] Optical density of the sample and the reference were read at 450 nm and 650 nm, respectively. TNF-α levels were determined from a graph relating the optical density at 450 nm to the concentration used. The IC50 value was defined as the concentration of the test compound corresponding to half-maximal reduction in 450 nm absorbance. […]

IC50 ([2]; Homo sapiens) [nM] | Compound | % Inhibition (TNF-α content in the test group relative to the vehicle treated group) [1] [%] | also measured
 | Nc1c(C(=O)c2cccc(C#CCN3CCOCC3)c2)cnn1-c1ccc(F)cc1 [compound 3, 5-Amino-1-(4-fluorophenyl)-4-[3-{3-(morpholin-4-yl)prop-1-ynyl}benzoyl]pyrazole] | 96 | 
1040 | Nc1c(C(=O)c2cccc(CCCN3CCOCC3)c2)cnn1-c1ccc(F)cc1 [compound 6, 5-Amino-1-(4-fluorophenyl)-4-[3-(3-morpholin-4-ylpropyl)benzoyl]pyrazole hydrochloride] |  | 
 | CNC(=O)COc1cccc(C(=O)c2cnn(-c3ccc(F)cc3)c2N)c1 [compound 34, 5-Amino-1-(4-fluorophenyl)-4-[3-(methylaminocarbonylmethyloxy)-benzoyl]pyrazole] | 75 | 
 | CN1CCN(C(=O)COc2cccc(C(=O)c3cnn(-c4ccc(F)cc4)c3N)c2)CC1 [compound 38] |  | IC50 [2]: 690 nM
510 | Nc1c(C(=O)c2cccc(CCS(N)(=O)=O)c2)cnn1-c1ccc(F)cc1 [compound 50, 5-Amino-4-[3-(2-aminosulfonylethyl)benzoyl]-1-(4-fluorophenyl)pyrazole] |  | 
